One series can be described thus: Solubility test. The format is physicochemical. To be noted: for Solubility: THF (volume of solvent in which the solid dissolved): 0.50 g solid added to THF at room temperature; for Solubility: THF (volume of solvent in which the solid dissolved) / Solubility: Acetone (volume of solvent in which the solid dissolved) / Solubility: Ethanol (volume of solvent in which the solid dissolved) / Solubility: Ethyl acetate (volume of solvent in which the solid dissolved) / Solubility: Methanol (volume of solvent in which the solid dissolved): shaking 30 seconds every 5 minutes, observed with eyes; for Solubility: Acetone (volume of solvent in which the solid dissolved): 0.50 g solid added to acetone at room temperature; for Solubility: Ethanol (volume of solvent in which the solid dissolved): 0.50 g solid added to ethanol at room temperature; for Solubility: Ethyl acetate (volume of solvent in which the solid dissolved): 0.50 g solid added to ethyl acetate at room temperature; for Solubility: Methanol (volume of solvent in which the solid dissolved): 0.50 g solid added to methanol at room temperature; for Solubility: Result: 0.50 g solid in the listed solvent volumes, room temperature, dissolved = no solid detected by human eyes. The protocol: The crystalline form C, D, F, H, J and L of azilsartan medoxomil potassium (0.50 g) was added to the solvent at room temperature. […] The solid was deemed as dissolved when no solid was detected in the mixture by human eyes.
The solubility data of crystalline forms C, D, F, H, J and L of azilsartan medoxomil potassium are as shown below.

Another series can be described thus: Stability test. The format is physicochemical. The protocol:
The stability test of the crystalline form C was conducted under the following conditions:
Storage condition 1: stored under conditions of 40° C./RH75% in a sealed state for 3 and 6 months. […] During the whole test period, no change in total amount of impurities was recognized as compared with that before the beginning of the test.
Storage condition 2: stored under conditions of 40° C./RH75% in an unsealed state for 1 and 3 months.

This note sets out measurements from patent publication US9403811B2, “Crystalline forms of azilsartan medoxomil potassium and preparation and uses thereof” (SUNSHINE LAKE PHARMA CO., LTD., priority 2012, dated 2016).

With `CCOc1nc2cccc(C(=O)OCc3oc(=O)oc3C)c2n1Cc1ccc(-c2ccccc2-c2noc(=O)[n-]2)cc1.[K+]` [Form C, azilsartan medoxomil potassium], in “Solubility test”, the “Solubility: THF (volume of solvent in which the solid dissolved)” value (shortened to “Solubility: THF”) is 13 mL, the “Solubility: Acetone (volume of solvent in which the solid dissolved)” value (“Solubility: Acetone” for short) was 8 mL, the “Solubility: Ethanol (volume of solvent in which the solid dissolved)” value (“Solubility: Ethanol” below) is 6 mL and the “Solubility: Ethyl acetate (volume of solvent in which the solid dissolved)” value (shortened to “Solubility: Ethyl acetate”) came out at 10 mL. Besides, in the series “Solubility test”, the “Solubility: Methanol (volume of solvent in which the solid dissolved)” value (shortened to “Solubility: Methanol”) is 5 mL and the “Solubility: Result” value is on record as “dissolved”. Besides, in the series “Stability test” (storage condition 1: 40° C./RH75%, sealed state, after six months), the “conversion of the crystalline form into other polymorphs” value is given as “could not be confirmed”. For the same compound, in “Stability test” (storage condition 1: 40° C./RH75%, sealed state, whole test period (3 and 6 months)), the “change in total amount of impurities compared with before the beginning of the test” value is “no change”. The “total amount of impurities compared with before the beginning of the test” value in “Stability test” (storage condition 2: 40° C./RH75%, unsealed state, 1 and 3 months) is recorded as “increased”. Besides, the “conversion of the crystalline form into other polymorphs” value in “Stability test” (storage condition 2: 40° C./RH75%, unsealed state, after three months) was “could not be confirmed”.
Turning to `CCOc1nc2cccc(C(=O)OCc3oc(=O)oc3C)c2n1Cc1ccc(-c2ccccc2-c2noc(=O)[n-]2)cc1.[K+]` [Form D, azilsartan medoxomil potassium], in “Solubility test”, the “Solubility: THF” value came to 16.5 ml^, the “Solubility: Acetone” value worked out at 9 mL, the “Solubility: Ethanol” value was 5 mL and the “Solubility: Ethyl acetate” value was found to be 12 mL. In the series “Solubility test”, the “Solubility: Methanol” value came out at 4 mL and the “Solubility: Result” value is listed as “dissolved”.
For the compound `CCOc1nc2cccc(C(=O)OCc3oc(=O)oc3C)c2n1Cc1ccc(-c2ccccc2-c2noc(=O)[n-]2)cc1.[K+]` [Form F, azilsartan medoxomil potassium], in the series “Solubility test”, the “Solubility: THF” value is 15 mL, the “Solubility: Acetone” value stood at 12 mL, the “Solubility: Ethanol” value is 6 mL and the “Solubility: Ethyl acetate” value amounted to 16 mL. For the same compound, in “Solubility test”, the “Solubility: Methanol” value amounted to 4.5 ml^ and the “Solubility: Result” value is “dissolved”.
`CCOc1nc2cccc(C(=O)OCc3oc(=O)oc3C)c2n1Cc1ccc(-c2ccccc2-c2noc(=O)[n-]2)cc1.[K+]` [Form H, azilsartan medoxomil potassium]: in “Solubility test”, the “Solubility: THF” value is 14 mL, the “Solubility: Acetone” value came out at 10 mL, the “Solubility: Ethanol” value was 8 mL and the “Solubility: Ethyl acetate” value stood at 13 mL. In addition, in the series “Solubility test”, the “Solubility: Methanol” value came to 6 mL and the “Solubility: Result” value was “dissolved”.
In the case of `CCOc1nc2cccc(C(=O)OCc3oc(=O)oc3C)c2n1Cc1ccc(-c2ccccc2-c2noc(=O)[n-]2)cc1.[K+]` [Form J, azilsartan medoxomil potassium], in “Solubility test”, the “Solubility: THF” value stood at 12 mL, the “Solubility: Acetone” value amounted to 8 mL, the “Solubility: Ethanol” value was 5.5 ml^ and the “Solubility: Ethyl acetate” value is 11 mL. Also, in the series “Solubility test”, the “Solubility: Methanol” value was 4 mL and the “Solubility: Result” value was “dissolved”.
As to `CCOc1nc2cccc(C(=O)OCc3oc(=O)oc3C)c2n1Cc1ccc(-c2ccccc2-c2noc(=O)[n-]2)cc1.[K+]` [Form L, azilsartan medoxomil potassium], in “Solubility test”, the “Solubility: THF” value is 17 mL, the “Solubility: Acetone” value stood at 11 mL, the “Solubility: Ethanol” value was found to be 6 mL and the “Solubility: Ethyl acetate” value was 14 mL. In “Solubility test”, the “Solubility: Methanol” value worked out at 5 mL and the “Solubility: Result” value is on record as “dissolved”.
